Measurements published in patent US20150065470A1, “Steroid Sulfatase Inhibitor Regimen for the Treatment of Endometriosis” (priority 2012, published 2015).
Several values for one entry are separate records, joined by “and”; a condition that tells them apart may be missing. Identical values can stand only once.

What was measured:
E2 and P4; T and D4A = experiment: Hormone profiles (E2, P4, T, D4A), Example 2; format: in vivo, human
Experimental: Hormone profiles were determined as described in Example 1.

STS [1] = biological target: T1, STS (Homo sapiens, UniProt P08842); details: cited from earlier work
T1 sequence (P08842 22-583): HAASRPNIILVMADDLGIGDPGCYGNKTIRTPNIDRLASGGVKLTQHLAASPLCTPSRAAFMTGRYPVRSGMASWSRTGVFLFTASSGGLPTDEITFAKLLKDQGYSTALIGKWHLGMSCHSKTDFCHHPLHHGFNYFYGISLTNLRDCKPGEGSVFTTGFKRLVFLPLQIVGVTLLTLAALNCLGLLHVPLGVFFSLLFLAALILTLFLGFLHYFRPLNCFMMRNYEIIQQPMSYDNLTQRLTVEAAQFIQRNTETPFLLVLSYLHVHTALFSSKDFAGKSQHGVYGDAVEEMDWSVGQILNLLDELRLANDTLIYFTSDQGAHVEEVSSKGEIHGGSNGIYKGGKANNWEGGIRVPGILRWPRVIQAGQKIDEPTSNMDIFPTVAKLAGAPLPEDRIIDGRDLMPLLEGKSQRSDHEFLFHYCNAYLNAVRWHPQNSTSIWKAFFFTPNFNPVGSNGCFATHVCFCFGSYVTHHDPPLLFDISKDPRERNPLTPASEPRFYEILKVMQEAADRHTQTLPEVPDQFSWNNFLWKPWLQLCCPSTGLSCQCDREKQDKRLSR

[2] = Safety, tolerability and ovarian cycle parameters, Example 1
Experimental: Treatment was started within 72 hours after the beginning of menstrual bleeding.
Ovarian and endometrium transvaginal ultrasounds throughout the study (Part A and B) and an endometrial biopsy (Part B only) were performed.

[3] = Safety, tolerability and post-treatment menstruation cycles, Example 2
Excerpt: Menstruation cycle length was not influenced by the treatment. […] Sizes of right and left ovary differed slightly for each subject, but no clinically relevant changes were identified by the gynaecologists.

[4] = system: endometriosis-like lesion; details: daily oral dose of 0.5 or 1 mg/kg for 21 days, cited from earlier work
STS [5] = experiment: E1-S to E1 and DHEA-S to DHEA ratios, Example 1; format: in vivo, human; details: multiple doses 0.25, 1, 4 mg weekly x4
Experimental: (§1) Pharmacodynamic properties were investigated by assessment of the STS activity in PBMCs and by measurement of the serum hormonal profile comprising the ratio of E1-S to E1 and DHEA-S to DHEA. […] Hormone profiles were analysed using commercially available ELISA or RIA kits.

[6] = biological target: T2, STS activity in Peripheral Blood Mononuclear Cells (PBMCs) (Homo sapiens, UniProt P08842); experiment: STS inhibition in PBMCs, loading and maintenance phase, Example 4; format: in vivo; details: concomitant NETA 5 mg daily, patients
T2 construct: Pharmacodynamic properties were investigated by assessment of the STS activity in PBMCs; endogenous in cells; host or cells: peripheral blood mononuclear cells (PBMCs) of dosed women
T2 sequence (P08842 22-583): T1 sequence (P08842 22-583)
Excerpt: The study is multicentre, randomised, two-arm, parallel group, double-blind, placebo controlled where eligible subjects were randomised on study day 1 in a 1:1 ratio into treatment group A or B between day 1 and day 4 of the menstrual bleeding.
The baseline is established in terms of endometriosis profile regarding pelvic pain, dysmenorrhea, dyspaneuria and bleeding pattern and those parameters are followed during the treatment. During the loading phase the subjects are monitored on day 7, day 21 and on week 4 and during the maintenance phase monthly on week 8, week 12 and week 16.

[7] = biological target: T3, Steroid Sulfatase in endometrium (Homo sapiens, UniProt P08842); experiment: STS activity in endometrium, Example 2 (LC-MS/MS); format: in vivo
T3 construct: from tissue; host or cells: endometrium (biopsies) of dosed women
T3 sequence (P08842 22-583): T1 sequence (P08842 22-583)
Experimental: STS activity was determined by spiking specimens with labelled E1-S and by measuring its conversion to E1 per gram protein under standardized incubation conditions using LC-MS/MS. Protein concentration was evaluated with a validated colorimetric assay (Bradford method).

E2 (serum estradiol) = experiment: Serum hormonal profile incl. estradiol concentrations, Example 1; format: in vivo, human
Experimental: as §1

[8] = multiple dose 0.25 mg weekly x4, Cycle 1
[9] = multiple dose 0.25 mg weekly x4, Cycle 2
[10] = multiple dose 0.25 mg weekly x4, Cycle 3
[11] = multiple dose 1 mg weekly x4, Cycle 1
[12] = multiple dose 1 mg weekly x4, Cycle 2
[13] = multiple dose 1 mg weekly x4, Cycle 3
[14] = multiple dose 4 mg weekly x4, Cycle 1
[15] = multiple dose 4 mg weekly x4, Cycle 2
[16] = multiple dose 4 mg weekly x4, Cycle 3

SMILES: C[C@]12CC[C@@H]3c4ccc(OS(N)(=O)=O)cc4CC[C@H]3[C@@H]1CC[C@@H]2O [E2MATE, Estradiol-3-o-sulfamate]
- mean concentration-time profiles in E2 and P4 (E2 and P4; T and D4A; first cycle up to Day 29, normal increase on Day 43): Normal mean concentration-time profiles
- mean concentration-time profiles for T and D4A (E2 and P4; T and D4A; multiple dose administration): No relevant differences
- STS inhibition (STS [1]): active STS inhibitors
- cycle length ([2]; in vivo): not affected
- endometrial thickness assessed by TVUS, between treatment groups ([2]; in vivo): no clinically relevant differences
- number of measurable follicles / subjects with follicles >10 mm ([2]; in vivo): No clinically relevant effects
- tolerability ([2]; multiple doses of 0.25, 1 mg and 4 mg weekly x4): well tolerated
- tolerability ([2]; single doses of 0.25 mg, 1 mg, 4 mg and 8 mg): well tolerated
- ovarian size ([3]; in vivo): no apparent effect
- tolerability ([3]; multiple doses for 4 weeks, healthy pre-menopausal female subjects): well tolerated
- lesion weight and size ([4]; end of treatment): decreased
- histology of the uterus (indicative of some estrogenic activity) [4]: some stromal oedema was observed
- number of lesions [4]: without a reduction
- turn-over of E1-S to E1 (STS [5]): dose-dependent decreased turn-over
- STS inhibition in PBMCs after the loading phase ([6]; Day 28, 16 mg over 4 weeks): almost complete
- STS inhibition in PBMCs at maintenance dose ([6]; Day 56, 2 mg/week): almost entire
- AVG [%] average inhibition of Steroid Sulfatase in endometrium (average effect over time (AUC)) ([7]; E2MATE 4 mg weekly and/or NETA 10 mg daily for 4 weeks): 66.6 (2.7) % and 66.60%
- STS inhibition [%] in endometrium ([7]; end of treatment, between Day 25 and Day 29): 91% and 90.66%
- Emax ([7]; read-out: Emax [%] maximal inhibition of Steroid Sulfatase in endometrium): 91%
- STS inhibition [%] in endometrium, After treatment ([7]; third biopsy day, 1 month after the end of the treatment (approximately 50 days after dosing)): 88% and 87.50%
- Avg estradiol concentration, Mean (E2 (serum estradiol); [8]): 135.7 ng/L
- Max estradiol concentration, Mean (E2 (serum estradiol); [8]): 305.3 ng/L
- Avg estradiol concentration, Mean (E2 (serum estradiol); [9]): 116.0 ng/L
- Max estradiol concentration, Mean (E2 (serum estradiol); [9]): 260.5 ng/L
- Avg estradiol concentration, Mean (E2 (serum estradiol); [10]): 107.1 ng/L
- Max estradiol concentration, Mean (E2 (serum estradiol); [10]): 185.4 ng/L
- Avg estradiol concentration, Mean (E2 (serum estradiol); [11]): 126.0 ng/L
- Max estradiol concentration, Mean (E2 (serum estradiol); [11]): 278.6 ng/L
- Avg estradiol concentration, Mean (E2 (serum estradiol); [12]): 109.0 ng/L
- Max estradiol concentration, Mean (E2 (serum estradiol); [12]): 193.4 ng/L
- Avg estradiol concentration, Mean (E2 (serum estradiol); [13]): 110.0 ng/L
- Max estradiol concentration, Mean (E2 (serum estradiol); [13]): 221.6 ng/L
- Avg estradiol concentration, Mean (E2 (serum estradiol); [14]): 134.8 ng/L
- Max estradiol concentration, Mean (E2 (serum estradiol); [14]): 317.8 ng/L
- Avg estradiol concentration, Mean (E2 (serum estradiol); [15]): 100.9 ng/L
- Max estradiol concentration, Mean (E2 (serum estradiol); [15]): 207.7 ng/L
- Avg estradiol concentration, Mean (E2 (serum estradiol); [16]): 94.9 ng/L
- Max estradiol concentration, Mean (E2 (serum estradiol); [16]): 180.9 ng/L
- differences in mean concentration-time profiles of E2, P4, LH, FSH, T and D4A compared to placebo (E2 (serum estradiol); multiple dose administration): No clinically relevant dose-related differences
- Avg (weighted average) estradiol concentration, Mean (E2 (serum estradiol); single dose 0.25 mg E2MATE): 141.2 ng/L
- Max estradiol concentration, Mean (E2 (serum estradiol); single dose 0.25 mg E2MATE): 335.1 ng/L
- Avg (weighted average) estradiol concentration, Mean (E2 (serum estradiol); single dose 1 mg E2MATE): 131.0 ng/L
- Max estradiol concentration, Mean (E2 (serum estradiol); single dose 1 mg E2MATE): 318.1 ng/L
- Avg (weighted average) estradiol concentration, Mean (E2 (serum estradiol); single dose 4 mg E2MATE): 113.8 ng/L
- Max estradiol concentration, Mean (E2 (serum estradiol); single dose 4 mg E2MATE): 275.3 ng/L
- Avg (weighted average) estradiol concentration, Mean (E2 (serum estradiol); single dose 8 mg E2MATE): 109.3 ng/L
- Max estradiol concentration, Mean (E2 (serum estradiol); single dose 8 mg E2MATE): 221.1 ng/L
- effects on mean concentration-time profiles of E2, P4, LH, FSH, T and D4A compared to placebo (E2 (serum estradiol); single dose administration): No clinically relevant effects
